The target of data set [1] is T1, NaV1.7 (Homo sapiens, UniProt Q15858).
T1 construct: expressed in transfected cells; tetracycline-inducible, kept under hygromycin and blasticidin
The experiment in a line: Automated patch clamp (Qube 384), internal block of NaV1.7 in HEK293 cells. The data set is classed as cell-based. The following applies: compound in internal solution, read-out: Nav1.7 Intracellular Inhibition (IC50). In a few lines: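 Tetracycline-induced HEK293 cells, 22° C; CsF-based internal (pH 7.3), compound dissolved in internal solution, exchanged after baseline 5 Hz pulsing (−100 to −20 mV, 10 ms), then recorded 10 min. Remaining current averaged from last 3 points versus Step 2 baseline, rundown-corrected with non-drug cells; IC50 from Hill fit.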
(Patch clamp records ionic current or voltage across a cell membrane.)

The target of data set [2] is T1, NaV1.7. The experiment in a line: Automated patch clamp (Qube 384), external block of NaV1.7 in HEK293 cells. It counts as cell-based. The following applies: compound in external solution, read-out: Nav1.7 Extracellular Inhibition (IC50). In a few lines:
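Tetracycline-induced HEK293 cells; whole-cell patch clamp at 22 degrees, compound in external solution (pH 7.4; CsF internal). Held at −100 mV with 10 ms pulses to −20 mV at 5 Hz, recorded 10 min after compound exchange. Control-corrected; IC50 from Hill fit.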

Data set [3] can be described thus: PAMPA membrane permeability assay. It counts as in vitro ADME. The following applies: PAMPA permeability coefficient, GIT lipid, buffer pH 7.4, 4 hours incubation. In a few lines: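 Passive permeability across GIT lipid-coated artificial membrane; compounds at 50 μM in pH 7.4 buffer in donor wells, incubated 4 h. Donor, acceptor and reference concentrations read by UV spectroscopy, permeability coefficient calculated from spectral AUCs.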
(In PAMPA a lipid-coated filter parts donor from acceptor wells.)

pIC50: −log10 of the molar value. Several values for one entry are separate records, joined by “and”; a condition that tells them apart may be missing. Equal values may be shown once.

T1 sequence (Q15858 whole entry): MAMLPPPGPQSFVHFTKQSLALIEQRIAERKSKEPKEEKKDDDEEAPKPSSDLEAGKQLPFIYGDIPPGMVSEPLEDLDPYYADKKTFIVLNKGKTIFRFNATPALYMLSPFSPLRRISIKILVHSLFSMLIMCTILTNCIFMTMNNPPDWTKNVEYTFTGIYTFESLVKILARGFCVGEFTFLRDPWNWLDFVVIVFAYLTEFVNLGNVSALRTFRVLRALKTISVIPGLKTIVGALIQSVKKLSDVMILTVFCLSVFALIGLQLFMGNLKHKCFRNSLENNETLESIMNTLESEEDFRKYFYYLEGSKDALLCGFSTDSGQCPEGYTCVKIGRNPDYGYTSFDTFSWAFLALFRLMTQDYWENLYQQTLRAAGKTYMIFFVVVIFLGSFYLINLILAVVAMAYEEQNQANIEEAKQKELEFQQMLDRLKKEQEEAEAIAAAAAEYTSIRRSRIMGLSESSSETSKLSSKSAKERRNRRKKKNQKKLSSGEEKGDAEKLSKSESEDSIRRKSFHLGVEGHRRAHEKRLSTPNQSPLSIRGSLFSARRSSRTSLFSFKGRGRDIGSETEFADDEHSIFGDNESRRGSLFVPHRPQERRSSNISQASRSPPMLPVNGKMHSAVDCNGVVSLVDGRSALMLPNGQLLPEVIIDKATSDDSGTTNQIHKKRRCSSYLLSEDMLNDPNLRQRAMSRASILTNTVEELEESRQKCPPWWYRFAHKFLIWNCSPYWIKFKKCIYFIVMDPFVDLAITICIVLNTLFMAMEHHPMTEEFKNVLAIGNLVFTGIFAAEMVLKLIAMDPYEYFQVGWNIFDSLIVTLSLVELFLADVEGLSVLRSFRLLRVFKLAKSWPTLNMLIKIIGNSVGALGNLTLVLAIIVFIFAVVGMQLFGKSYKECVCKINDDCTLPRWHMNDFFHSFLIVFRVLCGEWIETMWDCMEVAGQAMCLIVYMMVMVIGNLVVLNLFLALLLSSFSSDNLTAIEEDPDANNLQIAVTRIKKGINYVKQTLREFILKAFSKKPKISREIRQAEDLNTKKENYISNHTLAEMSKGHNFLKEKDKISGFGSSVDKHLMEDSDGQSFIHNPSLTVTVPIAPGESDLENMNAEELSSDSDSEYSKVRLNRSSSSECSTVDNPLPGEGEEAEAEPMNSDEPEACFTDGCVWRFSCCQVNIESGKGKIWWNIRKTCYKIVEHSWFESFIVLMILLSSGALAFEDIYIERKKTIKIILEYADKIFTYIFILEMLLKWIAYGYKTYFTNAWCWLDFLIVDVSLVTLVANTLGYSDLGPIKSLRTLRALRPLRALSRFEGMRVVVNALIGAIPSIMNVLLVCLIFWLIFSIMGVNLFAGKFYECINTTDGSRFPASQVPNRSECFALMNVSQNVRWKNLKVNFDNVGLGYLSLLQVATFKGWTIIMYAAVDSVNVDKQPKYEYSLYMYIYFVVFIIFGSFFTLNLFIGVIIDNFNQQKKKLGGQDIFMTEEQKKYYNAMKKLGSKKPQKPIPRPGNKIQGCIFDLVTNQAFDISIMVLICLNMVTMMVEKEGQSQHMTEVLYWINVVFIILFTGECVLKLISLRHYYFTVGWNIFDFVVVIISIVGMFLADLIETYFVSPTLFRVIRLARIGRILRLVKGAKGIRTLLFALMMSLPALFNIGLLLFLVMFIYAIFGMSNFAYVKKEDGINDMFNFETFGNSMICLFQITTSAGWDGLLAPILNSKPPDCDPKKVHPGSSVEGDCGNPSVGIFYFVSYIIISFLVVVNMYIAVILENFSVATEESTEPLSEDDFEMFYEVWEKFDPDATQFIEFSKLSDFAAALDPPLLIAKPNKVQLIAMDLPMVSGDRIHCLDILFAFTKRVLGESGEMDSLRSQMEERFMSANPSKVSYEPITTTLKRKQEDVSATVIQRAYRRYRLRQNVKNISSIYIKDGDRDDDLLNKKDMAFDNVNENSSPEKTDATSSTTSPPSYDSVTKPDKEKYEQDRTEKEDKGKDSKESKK

As for `CNC(=O)Cc1ccc[n+](CC(=O)Nc2c(C)cccc2C)c1` [Compound 33], the pIC50 (in general, the negative decadic logarithm of the IC50, by convention in mol/L) was 5.52 to 6.00 at NaV1.7 [1] and less than 4.00 on NaV1.7 [2]. The “PAMPA (10^−6 cm/s)” value in data set [3] is “++ (0.1-2.0 10^−6 cm/s)”.
On to `Cc1cccc(C)c1NC(=O)C[n+]1cccc(Cc2ccccc2)c1` [Compound 34], for which the pIC50 at NaV1.7 [1] was greater than 6.00; at NaV1.7 [2] it was greater than 5.00. Further, the “PAMPA (10^−6 cm/s)” value in data set [3] is given as “++ (0.1-2.0 10^−6 cm/s)”.
The matching figures for `Cc1cccc(C)c1NC(=O)C[n+]1cccc(S(C)(=O)=O)c1` [Compound 46]: 5.00 to 5.52, 4.52 to 5.00 and “+ (<0.1 10^−6 cm/s)”.
The matching figures for `Cc1cccc(C)c1NC(=O)C[n+]1cccc(S(=O)(=O)N(C)C)c1` [Compound 47]: 5.52 to 6.00, 4.52 to 5.00 and “+ (<0.1 10^−6 cm/s)”.
As to `CCNc1ccc[n+](CC(=O)Nc2c(C)cccc2C)c1` [Compound 50], the pIC50 on NaV1.7 [1] is 5.52 to 6.00; at NaV1.7 [2], 4.00 to 4.52 and < 4.00. Besides, the “PAMPA (10^−6 cm/s)” value in data set [3] was “+ (<0.1 10^−6 cm/s)”.
Consider `Cc1cccc(C)c1NC(=O)C[n+]1cccc(N2CCCC2)c1` [Compound 51], for which the negative logarithm of the IC50 (pIC50) on NaV1.7 [1] was greater than 6.00; at NaV1.7 [2], less than 4.00. Moreover, the “PAMPA (10^−6 cm/s)” value in data set [3] is “++ (0.1-2.0 10^−6 cm/s)”.
Take `Cc1cccc(C)c1NC(=O)C[n+]1cc2ccccc2n1C` [Compound 54]: the figures for the pIC50 on NaV1.7 [1] and at NaV1.7 [2] were 5.00 to 5.52 and 4.00 to 4.52, respectively. The “PAMPA (10^−6 cm/s)” value in data set [3] was “++ (0.1-2.0 10^−6 cm/s)”.
The matching figures for `Cc1cccc(C)c1NC(=O)C[n+]1cccc(C(F)(F)F)c1` [Compound 66]: 5.52 to 6.00, 4.00 to 4.52 and “++ (0.1-2.0 10^−6 cm/s)”.
As to `Cc1cccc(C)c1NC(=O)C[n+]1cccn1CC#N` [Compound 69], the pIC50 at NaV1.7 [1] is 4.52 to 5.00; on NaV1.7 [2], less than 4.00. The “PAMPA (10^−6 cm/s)” value in data set [3] is “+ (<0.1 10^−6 cm/s)”.
`Cc1cccc(C)c1NC(=O)C[n+]1cccn1C1CCCC1` [Compound 71]: the pIC50 was greater than 6.00 on NaV1.7 [1] and less than 4.00 at NaV1.7 [2]. In data set [3], the “PAMPA (10^−6 cm/s)” value is recorded as “+ (<0.1 10^−6 cm/s)”.
The matching figures for `Cc1cccc(C)c1NC(=O)C[n+]1cccn1CC1CC1` [Compound 73]: 5.52 to 6.00, less than 4.00 and “+ (<0.1 10^−6 cm/s)”.
For `CCOC(=O)CCCn1ccc[n+]1CC(=O)Nc1c(C)cccc1C` [Compound 75], the pIC50 at NaV1.7 [1] was greater than 6.00; on NaV1.7 [2], less than 4.00. The “PAMPA (10^−6 cm/s)” value in data set [3] is on record as “+ (<0.1 10^−6 cm/s)”.
Consider `CCOC(=O)Cn1cc(C)c[n+]1CC(=O)Nc1c(C)cccc1C` [Compound 76], for which the pIC50 at NaV1.7 [1] is 5.00 to 5.52; at NaV1.7 [2] it was less than 4.00. The “PAMPA (10^−6 cm/s)” value in data set [3] was “+ (<0.1 10^−6 cm/s)”.
The matching figures for `Cc1cccc(C)c1NC(=O)C[n+]1cc(F)cc(-c2ccccc2)c1` [Compound 77]: greater than 6.00, 4.52 to 5.00 and “+ (<0.1 10^−6 cm/s)”.
The matching figures for `CCCn1c(C)cc[n+]1CC(=O)Nc1c(C)cccc1C` [Compound 81]: 5.52 to 6.00, less than 4.00 and “+ (<0.1 10^−6 cm/s)”.
The matching figures for `CCCCn1ccc[n+]1CC(=O)Nc1c(C)cccc1C` [Compound 83]: 5.52 to 6.00, less than 4.00 and “+ (<0.1 10^−6 cm/s)”.
In the case of `CCOC(=O)c1cc(C)[n+](CC(=O)Nc2c(C)cccc2C)n1C` [Compound 84], the pIC50 on NaV1.7 [1] was 5.00 to 5.52; at NaV1.7 [2], less than 4.00. The “PAMPA (10^−6 cm/s)” value in data set [3] is reported as “+ (<0.1 10^−6 cm/s)”.
On to `COC(=O)c1c(F)c[n+](CC(=O)Nc2c(C)cccc2C)cc1F` [Compound 89], for which the pIC50 is 5.00 to 5.52 on NaV1.7 [1] and less than 4.00 at NaV1.7 [2]. Moreover, the “PAMPA (10^−6 cm/s)” value in data set [3] is reported as “+ (<0.1 10^−6 cm/s)”.
For `Cc1cccc(C)c1NC(=O)C[n+]1c(C)cc(C)n1C` [Compound 94] the same measures were greater than 6.00, 4.00 to 4.52 and “+ (<0.1 10^−6 cm/s)”.
For `CCn1ccc(C)[n+]1CC(=O)Nc1c(C)cccc1C` [Compound 95] the same measures were 5.52 to 6.00, less than 4.00 and “+ (<0.1 10^−6 cm/s)”.
Consider `COc1cc(OC)c[n+](CC(=O)Nc2c(C)cccc2C)c1` [Compound 98], for which the pIC50 is 5.52 to 6.00 on NaV1.7 [1] and less than 4.00 at NaV1.7 [2]. Moreover, the “PAMPA (10^−6 cm/s)” value in data set [3] is “+ (<0.1 10^−6 cm/s)”.
On to `CCCn1ccc(C)[n+]1CC(=O)Nc1c(C)cccc1C` [Compound 101], for which the figures for the pIC50 on NaV1.7 [1] and on NaV1.7 [2] were 5.00 to 5.52 and less than 4.00, respectively. Also, in data set [3], the “PAMPA (10^−6 cm/s)” value is reported as “+ (<0.1 10^−6 cm/s)”.
For `Cc1cccc(C)c1NC(=O)C[n+]1cc(OCc2ccccc2)ccc1Cl` [Compound 103] the same measures were 5.00 to 5.52, 4.00 to 4.52 and “+ (<0.1 10^−6 cm/s)”.
The matching figures for `CCn1c(C)cc[n+]1CC(=O)Nc1c(C)cccc1C` [Compound 104]: 5.52 to 6.00, less than 4.00 and “+ (<0.1 10^−6 cm/s)”.
As to `Cc1cccc(C)c1NC(=O)C(Cc1ccccc1)[n+]1ccccc1` (stereo not drawn) [Compound 106], the pIC50 is 5.52 to 6.00 on NaV1.7 [1] and less than 4.00 on NaV1.7 [2]. Further, in data set [3], the “PAMPA (10^−6 cm/s)” value is reported as “+ (<0.1 10^−6 cm/s)”.
The matching figures for `Cc1cccc(C)c1NC(=O)C(CC(C)C)[n+]1ccccc1` (stereo not drawn) [Compound 108]: 5.52 to 6.00, less than 4.00 and “++ (0.1-2.0 10^−6 cm/s)”.
The matching figures for `Cc1cccc(C)c1NC(=O)Cn1ccc[n+]1CC(=O)Nc1c(C)cccc1C` [Compound 109]: greater than 6.00, less than 4.00 and “+ (<0.1 10^−6 cm/s)”.

The record behind these values is patent publication US10934263B2, “Charged ion channel blockers and methods for use” (Nocion Therapeutics, Inc., priority 2019, dated 2021).
